Laboratory results as given in US20240156755A1, “USE OF RIP1 INHIBITOR OR MLKL INHIBITOR FOR TREATING OR PREVENTING HEREDITARY RETINAL DYSTROPHY” (TZU CHI UNIVERSITY, priority 2022, published 2024).
Entries after “also recorded” stand apart in the source; their conditions may differ.

Tests used:
[1] = test system: POMGNT1 knockout human RPE cells; assay: Trans-epithelial electrical resistance (TEER) of RPE monolayers; format: cell-based; details: transwell culture
Method: The RPE is a polarized epithelial monolayer which lies between the photoreceptors and the choroid. The RPE is essential to keep neural retinal healthy by maintenance of many important functions including light absorption, trans-epithelial transport, phagocytosis, and secretion of growth factors. The feature of healthy RPE is the generation of a trans-epithelial electrical resistance by specific tight junctions between epithelial cells. Trans-epithelial electrical resistance (TEER) was determined in RPE monolayers in WT and POMGNT1 knockout cells using Millicell-ERS Voltmeter (MERS00002, EMD Millipore) with transwell culture to evaluate the cell monolayer integrity.
POMGNT1 knockout human RPE cell were treated with RIPA-56, a potent, selective RIP1 inhibitor or with GW806742X, a MLKL inhibitor.

[2] = test system: Pomgnt1^L120R/L120R mice; assay: Scotopic ERG after treatment of Pomgnt1^L120R/L120R mice; format: in vivo; details: 6-month-old mice, 3 months after injection; compared with AAV8-GFP treated group; RIPA-56 10 mg/Kg twice a week IP; AAV 1 μL 1×10^9 vg subretinal
Method: To evaluate retinal function in vivo, ERG was recorded with various light stimulus intensities under dark-adapted scotopic condition. Scotopic ERG records rod photoreceptor (a-wave), signal from rod to rod bipolar cell (b-wave), and retinal pigment epithelium (c-wave). […] This reduction in ERG a-, b, and c-wave amplitude indicated the function of rod photoreceptor, rod bipolar cells post-synaptic signal and RPE were greatly affected in Pomgnt1^L120R/L120R mouse retina.

[3] = test system: POMGNT1 knockout human RPE cells; assay: Immunoblotting of autophagy-related proteins and necroptosis markers; format: cell-based

Row | Compound | TEER level [1] | scotopic ERG a-, b-, and c-wave amplitudes [2] | expression of beclin1, p62 and LC3b [3] | phospho-RIP3 and phosphor-MLKL [3]
1 | CN(c1ccc(NC(=O)Nc2ccc(OC(F)(F)F)cc2)cc1)c1ccnc(Nc2cccc(S(N)(=O)=O)c2)n1 [GW806742X] | significant improvement |  |  | 
2 | CCC(C)(C)C(=O)N(O)Cc1ccccc1 [RIPA-56] | significant improvement; also recorded: improve | significantly improved | significantly decrease | inhibit
